Test [1] relates to c-KIT1 (DNA, G4) GGGAGGGCGCTGGGAGGAGGG
Kind of test: UV-Vis titration. Conditions: K+ (100 mM KF, 10 mM potassium phosphate); PBS pH 7.4, ca. 20 °C; 2 μM DNA; 1:1 fit.

Test [2] has as its system dsDNA (DNA, hairpin, HEG linker (non-nucleotide loop) between 10 and 11) TATAGCTATATATAGCTATA
Kind of test: UV-Vis titration. Conditions: K+ (100 mM KF, 10 mM potassium phosphate); PBS pH 7.4, ca. 20 °C; 5 μM DNA; 1:1 fit; per base.

The subject of test [3] is c-KIT1 (DNA, G4) GGGAGGGCGCTGGGAGGAGGG
Kind of test: variable-temperature CD. The following applies: K+ (100 mM KF, 10 mM potassium phosphate); PBS pH 7.4; 2 μM DNA, 5 equivalents (10 μM) compound.

The subject of test [4] is h-TELO (DNA, G4) AGGGTTAGGGTTAGGGTTAGGGT
Kind of test: UV-Vis titration. The following applies: K+ (100 mM KF, 10 mM potassium phosphate); PBS pH 7.4, ca. 20 °C; 5 μM DNA; 1:1 fit.

In test [5] the test system is dsDNA (DNA, hairpin, HEG linker (non-nucleotide loop) between 10 and 11) TATAGCTATATATAGCTATA
Kind of test: variable-temperature CD. Conditions: K+ (100 mM KF, 10 mM potassium phosphate); PBS pH 7.4; 5 μM DNA, 5 equivalents (25 μM) compound; per base.

The test system of test [6] is h-TELO (DNA, G4) AGGGTTAGGGTTAGGGTTAGGGT
Kind of test: variable-temperature CD. The following applies: K+ (100 mM KF, 10 mM potassium phosphate); PBS pH 7.4; 5 μM DNA, 5 equivalents (25 μM) compound.

Test [7] deals with TBA (DNA, G4) GGTTGGTGTGGTTGG
Kind of test: variable-temperature CD. The following applies: K+ (100 mM KF, 10 mM potassium phosphate); PBS pH 7.4; 5 μM DNA, 5 equivalents (25 μM) compound.

Usually KD stands for a measure of binding affinity in units of concentration. A low value points to higher affinity. As a reminder, the ΔTm is the change in melting temperature against a reference sample. Consider `CC(C)(C)OC(=O)N[C@H](CN1C(=O)c2ccc3c4c(ccc(c24)C1=O)C(=O)N(C[C@@H](NC(=O)OC(C)(C)C)C(=O)O)C3=O)C(=O)O`, for which the results for the KD in test [1] and in test [2] were 8.0 ± 2.5 µM and 30.7 ± 6.9 µM, respectively. Further, the ΔTm in test [3] was 1.7 °C.

For the compound `CC(C)C[C@H](CC(=O)O)N1C(=O)c2ccc3c4c(ccc(c24)C1=O)C(=O)N([C@@H](CC(=O)O)CC(C)C)C3=O`, the KD in test [4] amounted to 13.6 ± 3.4 µM; in test [2] it was 50.2 ± 15.4 µM. Moreover, in test [3], the ΔTm is −0.9 °C.

On to `O=C(O)[C@@H](O)CN1C(=O)c2ccc3c4c(ccc(c24)C1=O)C(=O)N(C[C@H](O)C(=O)O)C3=O`, for which, in test [3], the shift in melting temperature (ΔTm) turned out to be 3.2 °C.

Turning to `C[C@@H](CC(=O)O)N1C(=O)c2ccc3c4c(ccc(c24)C1=O)C(=O)N([C@@H](C)CC(=O)O)C3=O`, the ΔTm in test [5] was −2.1 °C; in test [6] it was 0.2 °C.

`CC(C)C[C@@H](CC(=O)O)N1C(=O)c2ccc3c4c(ccc(c24)C1=O)C(=O)N([C@H](CC(=O)O)CC(C)C)C3=O`: the KD was 11.0 ± 3.1 µM in test [4] and 23.6 ± 8.4 µM in test [2]. In addition, the ΔTm in test [6] is 1.7 °C; in test [7], −0.1 °C.

Regarding `O=C(O)[C@@H](O)[C@@H](Cc1ccccc1)N1C(=O)c2ccc3c4c(ccc(c24)C1=O)C(=O)N([C@H](Cc1ccccc1)[C@H](O)C(=O)O)C3=O`, the ΔTm in test [5] was −0.1 °C; in test [7] it was 0.8 °C.

For the compound `CC(C)(C)OC(=O)N[C@@H](CN1C(=O)c2ccc3c4c(ccc(c24)C1=O)C(=O)N(C[C@H](NC(=O)OC(C)(C)C)C(=O)O)C3=O)C(=O)O`, the figures for the KD in test [1] and in test [2] were 2.6 ± 0.4 µM and 65.2 ± 35.9 µM, respectively. Further, the ΔTm in test [6] was 2.4 °C; in test [7], 0.1 °C; in test [3], 5.4 °C.

These data come from paper PMC10647805 (2023).
